Experimental data: paper PMC5354587, “Ergosterone-coupled Triazol molecules trigger mitochondrial dysfunction, oxidative stress, and acidocalcisomal Ca^2+ release in Leishmania mexicana promastigotes” (Microbial Cell, 2015)

Columns and labels:
Assay type in all cases: cell-based
[1] = system: Leishmania mexicana promastigotes; assay: Half-inhibitory concentration on parasites, modified MTT method
Protocol: Parasites were treated with different concentrations of the synthesized compounds for 48 hours to determine their cytotoxic effect. A dose dependent growth inhibition was observed after this time.
(§1) Promastigotes of Leishmania mexicana Bel 21 strain were cultured at 26°C in Liver Infusion Tryptone (LIT) medium supplemented with 10% fetal bovine serum (Internegocios). Primary cultures of human dermic fibroblasts were performed at 37°C in DMEN medium (Sigma) supplemented with 10% fetal bovine serum in a CO2 incubator at 5% CO2.
(§2) To determine the IC50 in parasites and human fibroblasts the protocol described by was followed. Briefly, a suspension of 2 x 10^6 parasites per mL^-1 or 5 x 10^3 fibroblasts per well were transferred into 96 well plates and different concentrations of the compounds were added. Plates were incubated under the corresponding culture conditions for 48 or 72 hours for L. mexicana or human fibroblasts, respectively. Thereafter, parasites plates were centrifuged prior to the elimination of the supernatant. Cell viability was measured by the modified MTT method, where cells were incubated with the MTT substrate at 0.2 mg x mL^-1 for 4 hours. Colored crystals formed were solubilized in DMSO and absorbance was measured at 570 nm. IC50 was obtained from a dose response curve using the software OriginLab Pro 6.0^©.

human dermic fibroblasts = assay: Half-inhibitory concentration on human fibroblasts, modified MTT method; conditions: Fibroblast, 72 hours
Protocol: as §1, §2

[2] = system: Leishmania mexicana promastigotes; assay: Annexin V-AlexaFluor488/propidium iodide double staining, flow cytometry; conditions: Erg-GTr 1.4 μM or Erg-GTr2 2.3 μM
Protocol: The effect of Erg-GTr and Erg-GTr2 was further analyzed to determine the cell death mechanism. Asymmetry of the plasma membrane is loosed when cell death processes are activated. The Annexin V-AlexaFluor488/propidium iodide double staining was used to detect phosphatidylserine (PS) in the outer leaflet of the plasma membrane using flow cytometry after parasite treatment. Cells were incubated for 24 and 48 hours with Erg-GTr (1.4 μM) or Erg-GTr2 (2.3 μM). […] At this time, the integrity of the plasma membrane was still intact, as evidenced by a low PI staining (5% or lower). After 48 hours, the percentage of Annexin V positive cells increased to reach more than 60% (Erg-GTr) or was maintained at around 40% in the case of Erg-GTr2 (Figure 2B). […] This phenomenon has been reported as a criterium of the late stage of cell death processes.
The annexin V-AlexaFluor 488 (Invitrogen) was used following the manufacture recommendations. Briefly, 1 x 10^6 parasites were washed with PBS and incubated with annexin V and propidium iodide (0.05 mg x mL^-1) in 100 μL binding buffer for 15 minutes. Final volume was adjusted at 500 μL and samples were immediately analyzed in a Beckman Coulter Gallios Cytometer.

[3] = system: Leishmania mexicana promastigotes; assay: Alkalinization of acidocalcisomes, acridine orange; conditions: Erg-GTr 1.4 μM or Erg-GTr2 2.4 μM; nigericin 2 μM as control
Excerpt: Leishmania can store Ca^2+ in different compartments like the endoplasmic reticulum, the mitochondrion, and the acidocalcisomes. The major Ca^2+ reservoir is represented by this last organelle. In order to analyze if the [Ca^2+]cyt increase is due to its release from acidocalcisomes, parasites were charged with acridine orange and assayed fluorimetrically. Since acridine orange accumulates in acidic compartments, it allows detection of alkalinization.
To evaluate the effect of ergosterone coupled molecules on the Ca^2+ reservoir organelle acidocalcisome, parasites were stained with acridine orange as described previously. Briefly, 1 x 10^7 parasites were washed twice with loading buffer (20 mM Tris-HCl, 130 mM KCl, 1 mM MgCl2, and 2 mM KH2PO4) and incubated for 5 minutes with acridine orange (5 μM). Samples were washed twice, resuspended in 500 μL of the same buffer, and transferred to a stirred quartz cuvette at 29°C. Fluorescence (ex 488 nm and em 530 nm) was registered in a Hitachi F-7000 Spectrofluorimeter. Nigericin was used as control for acidocalcisome alkalinization.

[4] = system: Leishmania mexicana promastigotes; assay: Transmission electron microscopy of treated parasites; conditions: 48 hours, TEM
Protocol: To analyze if changes observed after parasite treatment with Erg-GTr or Erg-GTr2 can be associated with morphological alterations, cells were prepared for transmission electron microscopy as described in materials and methods section.
Figure 5 FIGURE 5: Transmission electron microscopy (TEM) of Epon-embedded cells. Parasites were treated with 1.4 μM Erg-GTr, 2.3 μM Erg-GTr2 or DMSO (control cells), harvested after 48 hours and prepared for TEM. (A) The most obvious alterations in Erg-GTr-treated cells are as follows: increase of vacuolar structures containing cytoplasmic material (c, d, f, h), myelin-like structures (d, h), increase of lysosomes (d, e, g), and flagellar pocket containing some material (g). Note the usual appearance of mitochondria, nucleus and cytoplasmic content in control cells (a, b). Abbreviations used: lysosome (L); nucleus (N); flagellar pocket (FP); mitochondrion (M). Arrows and asterisk indicate autophagosomes and myelin-like structures, respectively. (B) Mitochondrion zoom in to show cristae. […] Bars represent 0.5 μ each.
For TEM, 10^8 parasites were fixed in 2% (vol/vol) glutaraldehyde in 0.2 M sodium cacodylate buffer containing 0.12 M sucrose for 1 h at 4°C. Thereafter samples were washed four times (10 min each) and stored overnight in sodium cacodylate buffer. Before dehydration in ethanol, cells were postfixed in osmium tetroxide (1.5%, wt/vol) and stained in 0.5% uranyl acetate. Samples were cleared in propylene oxide and embedded in Agar 100 as described by. Sections were stained in 5% (wt/vol) uranyl acetate and 0.4% (wt/vol) lead citrate.

CC(C)C(C)C=CC(C)C1CCC2C3=CC(=NNC(=O)n4cnnc4)C4(O)CC(=O)CCC4(C)C3CCC21C (centres unmarked) [Erg-GTr, [1,2,4]triazole-4-carboxylic acid [5-hydroxy-10,13-dimethyl-3-oxo-17-(1,4,5-trimethyl-hex-2-enyl)-1,2,3,4,5,9,10,11,12,13,14,15,16,17-tetradecahydro-cyclopenta[a]phenanthren-6-ylidene]-hydrazide] was tested, and the IC50 ([1]; Leishmania mexicana, 48 h, read-out: IC50 on L. mexicana promastigotes) was 1400 ± 400 nM, the Selectivity index ([1]; promastigotes compared to human dermic fibroblasts) was 9.8 and the IC50 (human dermic fibroblasts) was 13.7 ± 1.9 µM. The PI staining ([2]; 24 hours) was no more than 5%, the “PS exposure, percentage of the cell population” value ([2]; 24 hours) was 40.2% and the PI positive cells ([2]; 48 hours) was 31%. The “percentage of Annexin V positive cells” value ([2]; 48 hours) was “more than 60%”, the “acridine orange fluorescence (acidocalcisome alkalinization)” value [3] was “rapid fluorescence increase” and the “autophagy (ultrastructural changes)” value [4] was “Induction of autophagy”. For the same compound, the “treated parasites showing increase in cristae number and size” value [4] was “More than 50%” and the “number and size of mitochondrion cristae” value ([4]; compared with control) was “higher”.
